Data: ChEMBL document CHEMBL4196088, “Induction of cell killing and autophagy by amphiphilic pyrrolidine derivatives on human pancreatic cancer cells” (Eur J Med Chem, 2018)

What was measured:
PANC-1 [1] = assay: Induction of apoptosis in human PANC1 cells assessed as accumulation at sub-G0/G1 phase at 20 uM after 48 hrs by propidium iodide staining based flow cytometry (reference value: 0.2 to 2.9%); type: functional
Fibroblast [2] = assay: Induction of apoptosis in human primary fibroblasts at 20 uM after 24 hrs by propidium iodide staining based flow cytometry (reference value: 4.8%); type: cell-based
PK9 [3] = assay: Induction of apoptosis in human PK9 cells assessed as accumulation at sub-G0/G1 phase at 10 uM after 24 hrs by propidium iodide staining based flow cytometry (reference value: 2.2%); type: functional
Fibroblast [4] = assay: Induction of apoptosis in human primary fibroblasts assessed as accumulation at sub-G0/G1 phase at 10 uM after 72 hrs by propidium iodide staining based flow cytometry (reference value: 6.7%); type: cell-based
PK9 [5] = assay: Induction of apoptosis in human PK9 cells assessed as accumulation at sub-G0/G1 phase at 10 uM after 48 hrs by propidium iodide staining based flow cytometry (reference value: 3.8%); type: functional
Fibroblast [6] = assay: Induction of apoptosis in human primary fibroblasts assessed as accumulation at sub-G0/G1 phase at 10 uM after 24 hrs by propidium iodide staining based flow cytometry (reference value: 4.8%); type: cell-based
PANC-1 [7] = assay: Induction of apoptosis in human PANC1 cells assessed as accumulation at sub-G0/G1 phase at 20 uM after 72 hrs by propidium iodide staining based flow cytometry (reference value: 1.6 to 3.2%); type: functional
Fibroblast [8] = assay: Induction of apoptosis in human primary fibroblasts at 20 uM after 72 hrs by propidium iodide staining based flow cytometry (reference value: 6.7%); type: cell-based
[9] = Induction of apoptosis in HPNE cells assessed as accumulation at sub-G0/G1 phase at 20 uM after 72 hrs by propidium iodide staining based flow cytometry (reference value: 6.6%); type: cell-based; conditions: human
PANC-1 [10] = assay: Induction of apoptosis in human PANC1 cells assessed as accumulation at sub-G0/G1 phase at 10 uM after 24 hrs by propidium iodide staining based flow cytometry (reference value: 0.6 to 0.7%); type: functional
PK9 [11] = assay: Induction of apoptosis in human PK9 cells assessed as accumulation at sub-G0/G1 phase at 10 uM after 72 hrs by propidium iodide staining based flow cytometry (reference value: 4%); type: functional
[12] = Induction of apoptosis in HPNE cells assessed as accumulation at sub-G0/G1 phase at 10 uM after 24 hrs by propidium iodide staining based flow cytometry (reference value: 0.6%); type: cell-based; conditions: human
[13] = Induction of apoptosis in HPNE cells assessed as accumulation at sub-G0/G1 phase at 10 uM after 48 hrs by propidium iodide staining based flow cytometry (reference value: 0.7%); type: cell-based; conditions: human
PK9 [14] = assay: Induction of apoptosis in human PK9 cells assessed as accumulation at sub-G0/G1 phase at 20 uM after 72 hrs by propidium iodide staining based flow cytometry (reference value: 4%); type: functional
Fibroblast [15] = assay: Induction of apoptosis in human primary fibroblasts at 20 uM after 48 hrs by propidium iodide staining based flow cytometry (reference value: 6.1%); type: cell-based
PANC-1 [16] = assay: Induction of apoptosis in human PANC1 cells assessed as accumulation at sub-G0/G1 phase at 10 uM after 72 hrs by propidium iodide staining based flow cytometry (reference value: 1.6 to 3.2%); type: functional
PK9 [17] = assay: Induction of apoptosis in human PK9 cells assessed as accumulation at sub-G0/G1 phase at 20 uM after 24 hrs by propidium iodide staining based flow cytometry (reference value: 2.2%); type: functional
[18] = Induction of apoptosis in HPNE cells assessed as accumulation at sub-G0/G1 phase at 20 uM after 48 hrs by propidium iodide staining based flow cytometry (reference value: 0.7%); type: cell-based; conditions: human
[19] = Induction of apoptosis in HPNE cells assessed as accumulation at sub-G0/G1 phase at 10 uM after 72 hrs by propidium iodide staining based flow cytometry (reference value: 6.6%); type: cell-based; conditions: human
HeLa = assay: Growth inhibition of human HeLa cells after 72 hrs; type: functional, cell-based
PK9 [20] = assay: Induction of apoptosis in human PK9 cells assessed as accumulation at sub-G0/G1 phase at 20 uM after 48 hrs by propidium iodide staining based flow cytometry (reference value: 3.8%); type: functional
[21] = Induction of apoptosis in HPNE cells assessed as accumulation at sub-G0/G1 phase at 20 uM after 24 hrs by propidium iodide staining based flow cytometry (reference value: 0.6%); type: cell-based; conditions: human
PANC-1 [22] = assay: Induction of apoptosis in human PANC1 cells assessed as accumulation at sub-G0/G1 phase at 10 uM after 48 hrs by propidium iodide staining based flow cytometry (reference value: 0.2 to 2.9%); type: functional
PANC-1 [23] = assay: Induction of apoptosis in human PANC1 cells assessed as accumulation at sub-G0/G1 phase at 20 uM after 24 hrs by propidium iodide staining based flow cytometry (reference value: 0.6 to 0.7%); type: functional
Fibroblast [24] = assay: Induction of apoptosis in human primary fibroblasts assessed as accumulation at sub-G0/G1 phase at 10 uM after 48 hrs by propidium iodide staining based flow cytometry (reference value: 6.1%); type: cell-based
SK-BR-3 = assay: Growth inhibition of human SKBR3 cells after 72 hrs; type: functional, cell-based; conditions: SK-BR-3, 72 h
BXPC-3 [25] = assay: Induction of apoptosis in human BxPC3 cells assessed as accumulation at sub-G0/G1 phase at 10 uM after 48 hrs by propidium iodide staining based flow cytometry (reference value: 2.8%); type: functional
BXPC-3 [26] = assay: Induction of apoptosis in human BxPC3 cells assessed as accumulation at sub-G0/G1 phase at 20 uM after 24 hrs by propidium iodide staining based flow cytometry (reference value: 2.3%); type: functional
BXPC-3 [27] = assay: Induction of apoptosis in human BxPC3 cells assessed as accumulation at sub-G0/G1 phase at 20 uM after 72 hrs by propidium iodide staining based flow cytometry (reference value: 3.4%); type: functional
BXPC-3 [28] = assay: Induction of apoptosis in human BxPC3 cells assessed as accumulation at sub-G0/G1 phase harboring pSFFV-Bcl-XL at 20 uM after 24 hrs by propidium iodide staining based flow cytometry (reference value: 1.2%); type: functional
BXPC-3 [29] = assay: Induction of apoptosis in human BxPC3 cells assessed as accumulation at sub-G0/G1 phase harboring pSFFV-Bcl-XL at 20 uM after 48 hrs by propidium iodide staining based flow cytometry (reference value: 1.3%); type: functional
BXPC-3 [30] = assay: Induction of apoptosis in human BxPC3 cells harboring pSFFV-Bcl-XL assessed as accumulation at sub-G0/G1 phase at 10 uM after 24 hrs by propidium iodide staining based flow cytometry (reference value: 1.5%); type: functional
BXPC-3 [31] = assay: Induction of apoptosis in human BxPC3 cells assessed as accumulation at sub-G0/G1 phase at 10 uM after 72 hrs by propidium iodide staining based flow cytometry (reference value: 3.4%); type: functional
BXPC-3 [32] = assay: Induction of apoptosis in human BxPC3 cells assessed as accumulation at sub-G0/G1 phase at 10 uM after 24 hrs by propidium iodide staining based flow cytometry (reference value: 1.8%); type: functional
BXPC-3 [33] = assay: Induction of apoptosis in human BxPC3 cells harboring pSFFV-Bcl-XL assessed as accumulation at sub-G0/G1 phase at 10 uM after 48 hrs by propidium iodide staining based flow cytometry (reference value: 1.9%); type: functional
BXPC-3 [34] = assay: Induction of apoptosis in human BxPC3 cells assessed as accumulation at sub-G0/G1 phase at 20 uM after 48 hrs by propidium iodide staining based flow cytometry (reference value: 2.8%); type: functional
BXPC-3 [35] = assay: Induction of apoptosis in human BxPC3 cells harboring pSFFV-Bcl-XL assessed as accumulation at sub-G0/G1 phase at 10 uM after 72 hrs by propidium iodide staining based flow cytometry (reference value: 2%); type: functional
BXPC-3 [36] = assay: Induction of apoptosis in human BxPC3 cells assessed as accumulation at sub-G0/G1 phase harboring pSFFV-Bcl-XL at 20 uM after 72 hrs by propidium iodide staining based flow cytometry (reference value: 1.3%); type: functional

Row | SMILES | IC50 (HeLa) [µM] | Activity (PANC-1 [1]) [%] | Activity (Fibroblast [2]) [%] | Activity (PK9 [3]) [%] | Activity (Fibroblast [4]) [%] | Activity (PK9 [5]) [%] | Activity (Fibroblast [6]) [%] | Activity (PANC-1 [7]) [%] | Activity (Fibroblast [8]) [%] | Activity [9] [%] | Activity (PANC-1 [10]) [%] | Activity (PK9 [11]) [%] | Activity [12] [%] | Activity [13] [%] | Activity (PK9 [14]) [%] | Activity (Fibroblast [15]) [%] | Activity (PANC-1 [16]) [%] | Activity (PK9 [17]) [%] | Activity [18] [%] | Activity [19] [%] | other results
1 | Cl.O[C@H]1CN[C@H](COCCCCCC/C=C/c2ccc(-c3ccccc3)cc2)C1 | 4.2 | 36.9 | 58.9 | 6.9 | 54.5 | 10 | 14.6 | 54.2 | 73.7 | 92.6 | 9.6 | 13.5 | 44.4 | 78.5 | 71.5 | 75.4 | 47.9 | 26 | 92.1 | 93.6 | Activity (PK9 [20]): 66.6%; Activity [21]: 69.6%; Activity (PANC-1 [22]): 29.3%; Activity (PANC-1 [23]): 16.1%; Activity (Fibroblast [24]): 19.8%
2 | CCCCCCCC/C=C\CCCCCCCCNC[C@H]1NC[C@H](O)[C@@H]1O |  |  |  |  |  |  |  |  |  |  |  |  |  |  |  |  |  |  |  |  | IC50 (SK-BR-3): 10 µM

Now from value to compound, other results behind:

Row | IC50 (HeLa) [µM] | SMILES | Activity (PANC-1 [1]) [%] | Activity (Fibroblast [2]) [%] | Activity (PK9 [3]) [%] | Activity (Fibroblast [4]) [%] | Activity (PK9 [5]) [%] | Activity (Fibroblast [6]) [%] | Activity (PANC-1 [7]) [%] | Activity (Fibroblast [8]) [%] | Activity [9] [%] | Activity (PANC-1 [10]) [%] | Activity (PK9 [11]) [%] | Activity [12] [%] | Activity [13] [%] | Activity (PK9 [14]) [%] | Activity (Fibroblast [15]) [%] | Activity (PANC-1 [16]) [%] | Activity (PK9 [17]) [%] | Activity [18] [%] | Activity [19] [%] | other results
3 | 3.6 | Cl.O[C@H]1CN[C@H](COCCCCCCCCC/C=C/c2ccc(Oc3ccccc3)cc2)C1 | 49.5 | 75.1 | 4.3 | 6.5 | 10.8 | 9.8 | 56.1 | 82.1 | 91.2 | 11.5 | 5.4 | 67.1 | 86.1 | 27.8 | 87.9 | 35.1 | 20.6 | 86.8 | 88 | Activity (PK9 [20]): 23.1%; Activity [21]: 62.4%; Activity (PANC-1 [22]): 25.3%; Activity (PANC-1 [23]): 8.9%; Activity (Fibroblast [24]): 6.6%
4 | 3.9 | Cl.O[C@H]1CN[C@H](COCCCCCCCC/C=C/c2ccc(Oc3ccccc3)cc2)C1 | 33.7 | 40.1 | 3.5 | 8.1 | 7.4 | 9.1 | 43.8 | 72.7 | 94.3 | 12.9 | 6.9 | 42.8 | 72.9 | 48.7 | 74.8 | 28.2 | 30.1 | 87.5 | 85.9 | Activity (PK9 [20]): 46.5%; Activity [21]: 66.6%; Activity (PANC-1 [22]): 21.8%; Activity (PANC-1 [23]): 14.7%; Activity (Fibroblast [24]): 6.5%
5 | 4 | Cl.O[C@H]1CN[C@H](COCCCCCCCCC/C=C/c2ccc(-c3ccccc3)cc2)C1 | 38 | 17.2 | 9.6 | 22.1 | 30.4 | 9.5 | 66.2 | 33.7 | 98.3 | 8.8 | 39.4 | 80.6 | 83.5 | 84.9 | 21.7 | 56.2 | 35.1 | 93.5 | 93.4 | Activity (BXPC-3 [25]): 34.6%; Activity (BXPC-3 [26]): 12.7%; Activity (BXPC-3 [27]): 72%; Activity (BXPC-3 [28]): 7.3%; Activity (BXPC-3 [29]): 11.4%; Activity (BXPC-3 [30]): 2.6%; Activity (BXPC-3 [31]): 59.3%; Activity (BXPC-3 [32]): 22.1%; Activity (BXPC-3 [33]): 10%; Activity (BXPC-3 [34]): 59.3%; Activity (PK9 [20]): 77.4%; Activity [21]: 83.1%; Activity (PANC-1 [22]): 23.2%; Activity (BXPC-3 [35]): 15.7%; Activity (BXPC-3 [36]): 49.7%; Activity (PANC-1 [23]): 17.6%; Activity (Fibroblast [24]): 11.7%
